The text below walks through data of article PMC8625207, “Antikinetoplastid Activity of Sesquiterpenes Isolated from the Zoanthid Palythoa aff. clavata” (Pharmaceuticals, 2021).

Some results are limits rather than exact numbers.

The test system of data set [1] is promastigotes of Leishmania donovani strain (MHOM/IN/90/GE1F8R). The data set can be described thus: alamarBlue activity against promastigotes of L. donovani. It is filed as cell-based. The procedure: (§1) For the anti-leishmanicidal experiments, promastigotes and amastigotes of Leishmania amazonensis strain (MHOM/BR/77/LTB0016) and promastigotes of Leishmania donovani strain (MHOM/IN/90/GE1F8R) were used, and they were maintained in RPMI 1640 medium (Gibco, Waltham, MA, USA) at 26 °C. For the trypanocidal experiments, epimastigotes of Trypanosoma cruzi (Y strain) were used, and they were maintained in liver infusion tryptose (LIT) medium supplemented with 10% of fetal bovine serum (FBS) at 26 °C. Murine macrophages J774A.1 (ATCC #TIB-67), maintained in DMEM medium at 37 °C with 5% CO2, were used for the cytotoxic activity assays.
(§2) For the activity against extracellular parasites of kinetoplastid, Leishmania and Trypanosoma parasites, in a 96-well plate, serial dilutions of the compounds were added with dilutions of 10^5 parasites per well and a 10% of alamarBlue Cell Viability Reagent® (Thermo Fisher Scientific, Waltham, MA, USA). After 72 h of incubation at 26 °C, the fluorescence of each well was measured in the EnSpire Multimode Plate Reader® (PerkinElmer, Thermo Fisher Scientific, Madrid, Spain). The inhibitory concentration 50 (IC50) was calculated by nonlinear regression analysis.

The test system of data set [2] is promastigotes of Leishmania amazonensis strain (MHOM/BR/77/LTB0016). Briefly: alamarBlue activity against promastigotes of L. amazonensis. It is filed as cell-based. Here is the method:
as §1, §2

Data set [3] concerns amastigotes of L. amazonensis. Briefly: alamarBlue activity against intracellular amastigotes of L. amazonensis in murine macrophages. It is filed as cell-based, Leishmania amazonensis. Here is the method: as §1
To determinate the IC50 against the intracellular form of the parasite amastigotes of L. amazonensis, the alamarBlue colorimetric method was also used. In a 96-well plate, murine macrophages were added in a concentration of 10^4 cells per well. After adherence of the cells, 10^5 promastigotes of the parasite were added to reach 1:10 cell:parasites per well. After 24 h of incubation at 37 °C with 5% of CO2 for the internalization of the parasite, the wells were washed, and serial dilutions of the compounds were added. After an incubation of 24 h with the compounds, the wells were washed, and the macrophages were broken with a solution of SDS (Sodium dodecyl sulfate) at 0.05% for 30 s. After adding fresh RPMI medium, we added 10% of alamarBlue, and the plates were incubated at 26 °C for 96 h. Finally, the fluorescence was measured by using the EnSpire Multimode Plate Reader® (PerkinElmer, Thermo Fisher Scientific, Madrid, Spain), and the IC50 of each compound was calculated.

Data set [4] deals with epimastigotes of Trypanosoma cruzi (Y strain). Briefly: alamarBlue activity against epimastigotes of T. cruzi. It is filed as cell-based. Here is the method:
as §1, §2

Data set [5] can be described thus: alamarBlue cytotoxicity on murine macrophages. The data set is classed as cell-based. To be noted: mouse, J774A.1 macrophages; 24 h of incubation; read-out: Macrophages J744A.1 CC50.
In data set [6] the test system is promastigotes of L. amazonensis. Briefly: Chromatin condensation, Hoechst 33342/propidium iodide. The note with it: IC90, 24 h. It is filed as cell-based, Leishmania amazonensis.
Data set [7] deals with epimastigotes of T. cruzi. Described as above. The data set is classed as cell-based, Trypanosoma cruzi. The note with it: IC90, 24 h.
In data set [8] the test system is promastigotes of L. amazonensis. The data set can be described thus: Plasmatic membrane permeability, SYTOX Green. It is filed as cell-based, Leishmania amazonensis. The note with it: IC90, 24 h.
Another data set concerns L. amazonensis. Briefly: ATP levels, CellTiter-Glo. It is filed as cell-based, Leishmania amazonensis. The note with it: IC90, 24 h, negative control = 100%. Here is the method:
(§3) The levels of ATP were measured by using CellTiter-Glo® reagent, and values of luminescence were obtained by the EnSpire Multimode Plate Reader®. Results were processed and represented in Figure 4 as the percentage of ATP relative to the negative control (without treatment) that corresponds with 100% of ATP level.
(§4) The levels of ATP in the wells were measured by using the CellTiter-Glo® Luminescent Cell Viability Assay (Promega, WI, USA). […] These volumes were transferred to a white plate, and 25 μL of kit was added to each well. After 10 min of incubation at room temperature, the luminescence was determined by using the EnSpire Multimode Plate Reader® (PerkinElmer), and the results were expressed as the percentage of production of ATP relative to the negative control (without any treatment). All of the experiments were performed in triplicate in three different days (n = 3).

In data set [9] the test system is T. cruzi. The data set can be described thus: ATP levels, CellTiter-Glo. The data set is classed as cell-based, Trypanosoma cruzi. To be noted: IC90, 24 h, negative control = 100%. The procedure:
as §3, §4

The subject of data set [10] is epimastigotes of T. cruzi. The data set can be described thus: Reactive oxygen species detection, CellROX Deep Red. It is filed as cell-based, Trypanosoma cruzi. To be noted: IC90, 24 h.
The test system of data set [11] is epimastigotes of T. cruzi.
The test system of data set [12] is T. cruzi. Set-up: method as in PMID 17950283. The note with it: read-out: IC50 against T. cruzi; cited from earlier work.
Another data set deals with T. brucei rhodes. On the set-up: method as in PMID 19513006. To be noted: cited from earlier work.

Take `C=C1CCC2C(=C)C(=O)OC2C=C(C)CCC1=O` (stereo not drawn) [Anhydroartemorin (2), anhydroartemorin]: the IC50 is over 102 µM in data set [1] (Leishmania donovani, 72 h of incubation, mean with standard deviation); 25.6 ± 5.88 µM in [2] (Leishmania amazonensis, 72 h of incubation, mean with standard deviation); 7.44 ± 0.45 µM in data set [3] (Leishmania amazonensis, Macrophage, 24 h of incubation, intracellular form in murine macrophages); 13 ± 4.95 µM in [4] (Trypanosoma cruzi, 72 h of incubation, mean with standard deviation). For the same compound, the “Promastigotes L. donovani SI” value in data set [1] (selectivity index CC50/IC50 (macrophages J744A.1 vs parasite)) is under 1.76. For the same compound, the “Promastigotes L. amazonensis SI” value in data set [2] (selectivity index CC50/IC50) came to 7.00. The “Amastigotes L. amazonensis SI” value in [3] (selectivity index CC50/IC50) is given as 24.06. The “Epimastigotes T. cruzi SI” value in [4] (selectivity index CC50/IC50) is 13.76. Besides, in data set [5], the cytotoxic concentration (CC50) at 24 h turned out to be 179 ± 2.27 µM. In addition, the Chromatin condensation entry in data set [6] is “induced chromatin condensation”; in [7], “caused chromatin condensation”. Also, the Plasmatic membrane permeability result in [8] and in [11] was “increase on the plasmatic membrane permeability” in each case. For the same compound, the “Percentage of ATP relative to the negative control” value came out at 28.76% with L. amazonensis and 27.17% in the data set on T. cruzi [9]. The “Reactive oxygen species detection” value in data set [10] is listed as “intense fluorescence due to ROS detection”.
For `C=C1C(=O)O[C@H]2[C@H]1CC/C(C)=C/CC[C@@]1(C)O[C@@H]21` [Parthenolide (15), parthenolide], the IC50 with T. cruzi [12] was 2.01 µM.
With `C=C1C(=O)OC2C1CCC1(C)C(O)CCC(=C)C21` (stereo not drawn) [compound 19], in the data set with T. brucei rhodes, the “selectivity against T. brucei rhodes” value is reported as “high selectivity”.
